What was measured:
Type in all cases: in vivo
[1] = tested on: Western Flower Thrips (Frankliniellla occidentalis (Pergande)); assay: Test F: control of Western Flower Thrips on Soleil bean plant, contact and/or systemic, spray; conditions: 50 ppm spray; 6 days; very good to excellent control; criterion is plant damage and/or 100% mortality
Description: (§1) Formulation and Spray Methodology for Tests A-F
(§2) Test compounds were formulated using a solution containing 10% acetone, 90% water and 300 ppm X-77® Spreader Lo-Foam Formula non-ionic surfactant containing alkylarylpolyoxyethylene, free fatty acids, glycols and isopropanol (Loveland Industries, Inc. Greeley, Colo., USA). The formulated compounds were applied in 1 mL of liquid through a SUJ2 atomizer nozzle with 1/8 JJ custom body (Spraying Systems Co. Wheaton, Ill., USA) positioned 1.27 cm (0.5 inches) above the top of each test unit. Test compounds were sprayed at the rates indicated, and each test was replicated three times.
For evaluating control of the Western Flower Thrips (Frankliniellla occidentalis (Pergande)) through contact and/or systemic means, the test unit consisted of a small open container with a 5-7-day-old Soleil bean plant inside.
Test compounds were formulated and sprayed at 250 and/or 50 ppm. After spraying, the test units were allowed to dry for 1 hour, and then 22-27 adult thrips were added to each unit. A black, screened cap was placed on top, and the test units were held for 6 days at 25° C. and 45-55% relative humidity.

[2] = tested on: green peach aphid (Myzus persicae (Sulzer)); assay: whole plant or invertebrate; conditions: in Raphanus sativus, 144 h, 6 days; for mortality at 50 ppm: 50 ppm spray; for mortality at 250 ppm: 250 ppm spray
Description: as §1, §2
For evaluating control of green peach aphid (Myzus persicae (Sulzer)) through contact and/or systemic means, the test unit consisted of a small open container with a 12-15-day-old radish plant inside. This was pre-infested by placing on a leaf of the test plant 30-40 aphids on a piece of leaf excised from a culture plant (cut-leaf method). The aphids moved onto the test plant as the leaf piece desiccated. After pre-infestation, the soil of the test unit was covered with a layer of sand.
Test compounds were formulated and sprayed at 250 and/or 50 ppm. After spraying of the formulated test compound, each test unit was allowed to dry for 1 hour and then a black, screened cap was placed on top. The test units were held for 6 days in a growth chamber at 19-21° C. and 50-70% relative humidity. Each test unit was then visually assessed for insect mortality.

[3] = tested on: sweetpotato whitefly (Bemisia tabaci (Gennadius)); assay: whole plant or invertebrate; conditions: in Gossypium hirsutum, 312 h, 13 days; for mortality at 50 ppm: 50 ppm spray; for mortality at 250 ppm: 250 ppm spray
Description: as §1, §2
For evaluating control of the sweetpotato whitefly (Bemisia tabaci (Gennadius)) through contact and/or systemic means, the test unit consisted of a small open container with a 12-14-day-old cotton plant inside. Prior to the spray application, both cotyledons were removed from the plant, leaving one true leaf for the assay. Adult whiteflies were allowed to lay eggs on the plant and then were removed from the test unit. Cotton plants infested with at least 15 eggs were submitted to the test for spraying.
Test compounds were formulated and sprayed at 250 and/or 50 ppm. After spraying, the test units were allowed to dry for 1 hour. The cylinders were then removed, and the units were taken to a growth chamber and held for 13 days at 28° C. and 50-70% relative humidity. Each test unit was then visually assessed for insect mortality.

[4] = tested on: cotton melon aphid (Aphis gossypii (Glover)); assay: whole plant or invertebrate; conditions: 144 h, 6 days; for mortality at 50 ppm: 50 ppm spray; for mortality at 250 ppm: 250 ppm spray
Description: as §1, §2
For evaluating control of cotton melon aphid (Aphis gossypii (Glover)) through contact and/or systemic means, the test unit consisted of a small open container with a 6-7-day-old cotton plant inside. This was pre-infested with 30-40 insects on a piece of leaf according to the cut-leaf method, and the soil of the test unit was covered with a layer of sand.
Test compounds were formulated and sprayed at 250 and/or 50 ppm. After spraying, the test units were maintained in a growth chamber for 6 days at 19° C. and 70% relative humidity. Each test unit was then visually assessed for insect mortality.

Row | Structure (SMILES) | control efficacy: plant damage (30% or less plant damage and/or 100% mortality) [1] [%] | mortality at 50 ppm [2] [%] | mortality at 250 ppm [2] [%] | mortality at 50 ppm [3] [%] | mortality at 250 ppm [3] [%] | mortality at 50 ppm [4] [%] | mortality at 250 ppm [4] [%]
1 | COC(CNC(=O)c1ccc(-c2ccc3nn(-c4cccnc4)cc3c2)c(Cl)c1)OC [Compound 18] | ≤ 30 | – | – | – | – | – | –
2 | COC(CNC(=O)c1cccc(-c2ccc3nn(-c4cccnc4)cc3c2)c1)OC [Compound 25, N-(2,2-dimethoxyethyl)-3-[2-(3-pyridinyl)-2H-indazol-5-yl]benzamide] | – | ≥ 80 | ≥ 80 | ≥ 50 | ≥ 50 | ≥ 80 | ≥ 80
3 | O=C(NCCO)c1cccc(-c2ccc3nn(-c4cccnc4)cc3c2)c1 [Compound 31, N-(2-hydroxyethyl)-3-[2-(3-pyridinyl)-2H-indazol-5-yl]benzamide] | – | ≥ 80 | ≥ 80 | – | – | ≥ 80 | ≥ 80
4 | O=C(NC1CCOCC1)c1csc(-c2ccc3nn(-c4cccnc4)cc3c2)n1 [Compound 64, 2-[2-(3-pyridinyl)-2H-indazol-5-yl]-N-(tetrahydro-2H-pyran-4-yl)-4-thiazolecarboxamide] | – | ≥ 80 | ≥ 80 | – | ≥ 50 | ≥ 80 | ≥ 80
5 | O=C(NCc1ncccn1)c1ncsc1-c1ccc2nn(-c3cccnc3)cc2c1 [Compound 78, 5-[2-(3-pyridinyl)-2H-indazol-5-yl]-N-(2-pyrimidinylmethyl)-4-thiazolecarboxamide] | – | ≥ 80 | ≥ 80 | – | – | ≥ 80 | –
6 | CNC(=O)C1(NC(=O)c2cc(-c3ccc4nn(-c5cccnc5)cc4c3)ccn2)CC1 [Compound 85, N-[1-[(methylamino)carbonyl]cyclopropyl]-4-[2-(3-pyridinyl)-2H-indazol-5-yl]-2-pyridinecarboxamide] | – | ≥ 80 | – | – | – | ≥ 80 | –
7 | NC(=O)C1(NC(=O)c2cc(-c3ccc4nn(-c5cccnc5)cc4c3)ccn2)CC1 [Compound 86, N-[1-(aminocarbonyl)cyclopropyl]-4-[2-(3-pyridinyl)-2H-indazol-5-yl]-2-pyridinecarboxamide] | – | ≥ 80 | – | – | – | ≥ 80 | –
8 | CN(C)C(=O)C1(NC(=O)c2cc(-c3ccc4nn(-c5cccnc5)cc4c3)ccn2)CC1 [Compound 87, N-[1-[(dimethylamino)carbonyl]cyclopropyl]-4-[2-(3-pyridinyl)-2H-indazol-5-yl]-2-pyridinecarboxamide] | – | ≥ 80 | – | – | – | ≥ 80 | –
9 | CNC(=O)COc1cccc(-c2ccc3nn(-c4cccnc4)cc3c2)c1 [Compound 102, N-methyl-2-[3-[2-(3-pyridinyl)-2H-indazol-5-yl]phenoxy]acetamide] | – | ≥ 80 | – | ≥ 50 | ≥ 50 | ≥ 80 | –
10 | COC(=O)C(C)(C)NC(=O)c1nnc(-c2ccc3nn(-c4cccnc4)cc3c2)o1 [Compound 105, 2-methyl-N-[[5-[2-(3-pyridinyl)-2H-indazol-5-yl]-1,3,4-oxadiazol-2-yl]carbonyl]alanine methyl ester] | – | – | – | – | – | ≥ 80 | –
11 | COC(=O)C(C)(C)NC(=O)c1nnc(-c2ccc3nn(-c4cccnc4)cc3c2)s1 [Compound 128, 2-methyl-N-[[5-[2-(3-pyridinyl)-2H-indazol-5-yl]-1,3,4-thiadiazol-2-yl]carbonyl]alanine methyl ester] | – | – | – | – | – | ≥ 80 | –
12 | CC(C)(C#N)NC(=O)c1coc(-c2ccc3nn(-c4cccnc4)cc3c2)n1 [Compound 155, N-(1-cyano-1-methylethyl)-2-[2-(3-pyridinyl)-2H-indazol-5-yl]-4-oxazolecarboxamide] | – | ≥ 80 | – | – | – | ≥ 80 | –
